The record followed here is ChEMBL document CHEMBL1130470, “Novel inhibitors of the prenylated protein methyltransferase reveal distinctive structural requirements” (Bioorg Med Chem Lett, 1997).

Each structure is given as a SMILES string. pKi: −log10 of the molar value. A value given as a limit tells only on which side of the number the result lay.

The nature of this test: In vitro inhibitory activity against prenylated protein methyltransferase (PPMTase), activity expressed as Ki(inhibitory constant). Also on record: species or system Rattus norvegicus.
Regarding `CC(C)=CCC/C(C)=C/CC/C(C)=C/CC/C(C)=C/CSc1ccccc1C(=O)O`, the negative logarithm of the Ki (pKi) (as a rule, the negative decadic logarithm of the Ki, by convention in mol/L) is below 4.30. For `CC(C)=CCC/C(C)=C/CC/C(C)=C/CSc1ccccc1C(=O)O` [SALIRASIB] the value was 5.55; for `CC(C)=CCC/C(C)=C/CC/C(C)=C/CSc1cc(Cl)ccc1C(=O)O`, 4.55.

On to `CC(C)=CCC/C(C)=C/CC/C(C)=C/CSc1cc(F)ccc1C(=O)O`, for which the pKi is 4.64. Next, `COC(=O)c1ccccc1SC/C=C(\C)CC/C=C(\C)CCC=C(C)C`: below 4.30; `CC(C)=CCC/C(C)=C/CSc1ccccc1C(=O)O`: below 4.30. For `CC(C)=CCC/C(C)=C/CC/C(C)=C/CSc1ccc(Cl)cc1C(=O)O` the value was 5.07; for `CC(C)=CCC/C(C)=C/CC/C(C)=C/CSc1c(Cl)cccc1C(=O)O`, below 4.30. For `CC(C)=CCC/C(C)=C/CC/C(C)=C/CSc1ccc(F)cc1C(=O)O` the value was 5.20.
